Test results from patent publication US8404670B2 (Sunovion Pharmaceuticals Inc., priority 2009, dated 2013).

Target: T1, human histamine H3 receptor (Homo sapiens, UniProt Q9Y5N1)
T1 construct: host or cells: cells expressing the human H3 receptor
Assay: H3 GTPγS assay (SPA method), histamine H3 in vitro assay
Assay type: biochemical
Conditions: GTPγ[35S] binding to membranes of cells expressing human H3; antagonist mode with R-γ-Me-Histamine at EC80 (30 nM); in one embodiment HCl salts tested; read-out: Potency (functional potency as indicated by IC50)

T1 sequence (Q9Y5N1 whole entry): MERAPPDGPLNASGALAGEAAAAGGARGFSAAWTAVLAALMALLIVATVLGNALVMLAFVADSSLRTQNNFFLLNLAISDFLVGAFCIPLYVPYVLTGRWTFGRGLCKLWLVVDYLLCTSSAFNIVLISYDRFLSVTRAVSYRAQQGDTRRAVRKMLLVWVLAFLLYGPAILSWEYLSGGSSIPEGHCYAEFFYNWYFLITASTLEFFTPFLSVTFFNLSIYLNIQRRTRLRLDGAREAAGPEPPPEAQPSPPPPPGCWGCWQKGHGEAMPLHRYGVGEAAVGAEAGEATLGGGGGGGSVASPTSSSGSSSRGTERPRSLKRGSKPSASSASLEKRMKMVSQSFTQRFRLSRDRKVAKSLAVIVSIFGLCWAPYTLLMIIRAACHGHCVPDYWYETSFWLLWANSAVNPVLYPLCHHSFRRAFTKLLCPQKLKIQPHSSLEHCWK

SMILES	IC50
c1cc2c(nc3n2CCN(C2CCC2)CC3)c2c1CNCC2 [Compound 184, 10-cyclobutyl-2,3,4,8,9,10,11,12-octahydro-1H-[1,4]diazepino[1′,7′:1,2]imidazo[4,5-f]isoquinoline]	≤ 1000 nM
O=C(C1CCC1)N1CCc2cc3c(cc2C1)nc1n3CCN(C2CCC2)CC1 [Compound 186, cyclobutyl(9-cyclobutyl-3,4,8,9,10,11-hexahydro-1H-[1,4]diazepino[7′,1′:2,3]imidazo[4,5-g]isoquinolin-2(7H)-yl)methanone]	≤ 100 nM
CC(=O)N1CCc2c(ccc3c2nc2n3CCN(C3CCC3)CC2)C1 [Compound 188, 1-(10-cyclobutyl-9,10,11,12-tetrahydro-1H-[1,4]diazepino[1′,7′:1,2]imidazo[4,5-f]isoquinolin-3(2H,4H,8H)-yl)ethanone]	≤ 1000 nM
c1c2c(cc3c1nc1n3CCN(C3CCC3)CC1)CNCC2 [Compound 189, 9-cyclobutyl-2,3,4,7,8,9,10,11-octahydro-1H-[1,4]diazepino[1′,7′:1,2]imidazo[4,5-g]isoquinoline]	≤ 100 nM
O=C(C1CCC1)N1CCc2cc3nc4n(c3cc2C1)CCN(C1CCC1)CC4 [Compound 191, cyclobutyl(9-cyclobutyl-3,4,8,9,10,11-hexahydro-1H-[1,4]diazepino[1′,7′:1,2]imidazo[4,5-g]isoquinolin-2 (7H)-yl)methanone]	≤ 100 nM
N#Cc1ccc(C(=O)N2CCc3cc4nc5n(c4cc3C2)CCN(C2CCC2)CC5)cc1 [Compound 192, 4-(9-cyclobutyl-2,3,4,7,8,9,10,11-octahydro-1H-[1,4]diazepino[1′,7′:1,2]imidazo[4,5-g]isoquinoline-2-carbonyl)benzonitrile]	≤ 100 nM
c1cnc(N2CCc3cc4nc5n(c4cc3C2)CCN(C2CCC2)CC5)nc1 [Compound 193, 9-cyclobutyl-2-(pyrimidin-2-yl)-2,3,4,7,8,9,10,11-octahydro-1H-[1,4]diazepino[1′,7′:1,2]imidazo[4,5-g]isoquinoline]	≤ 100 nM
CC(=O)N1CCc2cc3nc4n(c3cc2C1)CCN(C1CCC1)CC4 [Compound 194, 1-(9-cyclobutyl-3,4,8,9,10,11-hexahydro-1H-[1,4]diazepino[1′,7′:1,2]imidazo[4,5-g]isoquinolin-2(7H)-yl)ethanone]	≤ 100 nM
c1cc2ccc(-c3ccc4c(c3)nc3n4CCN(C4CCC4)CC3)nc2[nH]1 [Compound 196, 3-cyclobutyl-8-(1H-pyrrolo[2,3-b]pyridin-6-yl)-2,3,4,5-tetrahydro-1H-benzo[4,5]imidazo[1,2-d][1,4]diazepine]	≤ 100 nM
c1cc2nc(-c3ccc4c(c3)nc3n4CCN(C4CCC4)CC3)cnc2[nH]1 [Compound 199, 3-cyclobutyl-8-(5H-pyrrolo[2,3-b]pyrazin-2-yl)-2,3,4,5-tetrahydro-1H-benzo[4,5]imidazo[1,2-d][1,4]diazepine]	≤ 100 nM
c1nc2ccc(-c3ccc4c(c3)nc3n4CCN(C4CCC4)CC3)cn2n1 [Compound 203, 8-([1,2,4]triazolo[1,5-a]pyridin-6-yl)-3-cyclobutyl-2,3,4,5-tetrahydro-1H-benzo[4,5]imidazo[1,2-d][1,4]diazepine]	≤ 100 nM
Cn1ncc2ccc(-c3ccc4c(c3)nc3n4CCN(C4CCC4)CC3)cc21 [Compound 205, 3-cyclobutyl-8-(1-methyl-1H-indazol-6-yl)-2,3,4,5-tetrahydro-1H-benzo[4,5]imidazo[1,2-d][1,4]diazepine]	≤ 100 nM
Cn1cc2ccc(-c3ccc4c(c3)nc3n4CCN(C4CCC4)CC3)cc2n1 [Compound 206, 3-cyclobutyl-8-(2-methyl-2H-indazol-6-yl)-2,3,4,5-tetrahydro-1H-benzo[4,5]imidazo[1,2-d][1,4]diazepine]	≤ 100 nM
Clc1ccc(-c2ccc3c(c2)nc2n3CCN(C3CCC3)CC2)cc1Cl [Compound 211, 3-cyclobutyl-8-(3,4-dichlorophenyl)-2,3,4,5-tetrahydro-1H-benzo[4,5]imidazo[1,2-d][1,4]diazepine]	≤ 100 nM
FC(F)(F)c1ccc(-c2ccc3c(c2)nc2n3CCN(C3CCC3)CC2)cc1 [Compound 213, 3-cyclobutyl-8-(4-(trifluoromethyl)phenyl)-2,3,4,5-tetrahydro-1H-benzo[4,5]imidazo[1,2-d][1,4]diazepine]	≤ 100 nM
c1ccc2cc(-c3ccc4c(c3)nc3n4CCN(C4CCC4)CC3)ccc2c1 [Compound 214, 3-cyclobutyl-8-(naphthalen-2-yl)-2,3,4,5-tetrahydro-1H-benzo[4,5]imidazo[1,2-d][1,4]diazepine]	≤ 100 nM
O=c1[nH]c2cc(-c3ccc4c(c3)nc3n4CCN(C4CCC4)CC3)ccc2o1 [Compound 215, 5-(3-cyclobutyl-2,3,4,5-tetrahydro-1H-benzo[4,5]imidazo[1,2-d][1,4]diazepin-8-yl)benzo[d]oxazol-2(3H)-one]	≤ 100 nM
O=C1CCc2cc(-c3ccc4c(c3)nc3n4CCN(C4CCC4)CC3)ccc2N1 [Compound 216, 6-(3-cyclobutyl-2,3,4,5-tetrahydro-1H-benzo[4,5]imidazo[1,2-d][1,4]diazepin-8-yl)-3,4-dihydroquinolin-2(1H)-one]	≤ 10 nM
c1nc2cc(-c3ccc4c(c3)nc3n4CCN(C4CCC4)CC3)ccc2[nH]1 [Compound 217, 8-(1H-benzo[d]imidazol-5-yl)-3-cyclobutyl-2,3,4,5-tetrahydro-1H-benzo[4,5]imidazo[1,2-d][1,4]diazepine]	≤ 100 nM
c1cc2c(cc1-c1cnc3[nH]ncc3c1)nc1n2CCN(C2CCC2)CC1 [Compound 223, 3-cyclobutyl-8-(1H-pyrazolo[3,4-b]pyridin-5-yl)-2,3,4,5-tetrahydro-1H-benzo[4,5]imidazo[1,2-d][1,4]diazepine]	≤ 10 nM

More lines, now with the values ahead:

IC50	SMILES
≤ 10 nM	N#Cc1ccc(C(=O)N2CCc3cc4c(cc3C2)nc2n4CCN(C3CCC3)CC2)cc1 [Compound 185, 4-(9-cyclobutyl-2,3,4,7,8,9,10,11-octahydro-1H-[1,4]diazepino[7′,1′:2,3]imidazo[4,5-g]isoquinoline-2-carbonyl)benzonitrile]
≤ 10 nM	CC(=O)N1CCc2cc3c(cc2C1)nc1n3CCN(C2CCC2)CC1 [Compound 187, 1-(9-cyclobutyl-3,4,8,9,10,11-hexahydro-1H-[1,4]diazepino[7′,1′:2,3]imidazo[4,5-g]isoquinolin-2(7H)-yl)ethanone]
≤ 10 nM	c1cnc(N2CCc3cc4nc5n(c4cc3C2)CCN(C2CCC2)CC5)cn1 [Compound 190, 9-cyclobutyl-2-(pyrazin-2-yl)-2,3,4,7,8,9,10,11-octahydro-1H-[1,4]diazepino[1′,7′:1,2]imidazo[4,5-g]isoquinoline]
≤ 10 nM	Cc1cn2cc(-c3ccc4c(c3)nc3n4CCN(C4CCC4)CC3)ccc2n1 [Compound 195, 3-cyclobutyl-8-(2-methylimidazo[1,2-a]pyridin-6-yl)-2,3,4,5-tetrahydro-1H-benzo[4,5]imidazo[1,2-d][1,4]diazepine]
≤ 10 nM	c1cc2nc(-c3ccc4c(c3)nc3n4CCN(C4CCC4)CC3)ccc2[nH]1 [Compound 197, 3-cyclobutyl-8-(1H-pyrrolo[3,2-b]pyridin-5-yl)-2,3,4,5-tetrahydro-1H-benzo[4,5]imidazo[1,2-d][1,4]diazepine]
≤ 10 nM	c1cc2c(cc1-c1ccc3cncn3c1)nc1n2CCN(C2CCC2)CC1 [Compound 198, 3-cyclobutyl-8-(imidazo[1,5-a]pyridin-6-yl)-2,3,4,5-tetrahydro-1H-benzo[4,5]imidazo[1,2-d][1,4]diazepine]
≤ 10 nM	c1cc2ncc(-c3ccc4c(c3)nc3n4CCN(C4CCC4)CC3)cc2[nH]1 [Compound 200, 3-cyclobutyl-8-(1H-pyrrolo[3,2-b]pyridin-6-yl)-2,3,4,5-tetrahydro-1H-benzo[4,5]imidazo[1,2-d][1,4]diazepine]
≤ 10 nM	c1cc2ncc(-c3ccc4c(c3)nc3n4CCN(C4CCC4)CC3)cc2o1 [Compound 201, 6-(3-cyclobutyl-2,3,4,5-tetrahydro-1H-benzo[4,5]imidazo[1,2-d][1,4]diazepin-8-yl)furo[3,2-b]pyridine]
≤ 10 nM	Cn1cnc2cc(-c3ccc4c(c3)nc3n4CCN(C4CCC4)CC3)cnc21 [Compound 202, 3-cyclobutyl-8-(3-methyl-3H-imidazo[4,5-b]pyridin-6-yl)-2,3,4,5-tetrahydro-1H-benzo[4,5]imidazo[1,2-d][1,4]diazepine]
≤ 10 nM	c1cc2c(cc1-c1ccc3nncn3c1)nc1n2CCN(C2CCC2)CC1 [Compound 204, 8-([1,2,4]triazolo[4,3-a]pyridin-6-yl)-3-cyclobutyl-2,3,4,5-tetrahydro-1H-benzo[4,5]imidazo[1,2-d][1,4]diazepine]
≤ 10 nM	Cc1nc2ccccc2n1-c1ccc2c(c1)nc1n2CCN(C2CCC2)CC1 [Compound 207, 3-cyclobutyl-8-(2-methyl-1H-benzo[d]imidazol-1-yl)-2,3,4,5-tetrahydro-1H-benzo[4,5]imidazo[1,2-d][1,4]diazepine]
≤ 10 nM	Cc1nc2ccc(F)cc2n1-c1ccc2c(c1)nc1n2CCN(C2CCC2)CC1 [Compound 208, 3-cyclobutyl-8-(6-fluoro-2-methyl-1H-benzo[d]imidazol-1-yl)-2,3,4,5-tetrahydro-1H-benzo[4,5]imidazo[1,2-d][1,4]diazepine]
≤ 10 nM	Cc1ccc2nc(C)n(-c3ccc4c(c3)nc3n4CCN(C4CCC4)CC3)c2c1 [Compound 209, 3-cyclobutyl-8-(2,6-dimethyl-1H-benzo[d]imidazol-1-yl)-2,3,4,5-tetrahydro-1H-benzo[4,5]imidazo[1,2-d][1,4]diazepine]
≤ 10 nM	c1cc2c(cc1-c1ccc3c(c1)nc1n3CCN(C3CCC3)CC1)OCO2 [Compound 210, 8-(benzo[d][1,3]dioxol-5-yl)-3-cyclobutyl-2,3,4,5-tetrahydro-1H-benzo[4,5]imidazo[1,2-d][1,4]diazepine]
≤ 10 nM	CC(C)(C)c1ccc(-c2ccc3c(c2)nc2n3CCN(C3CCC3)CC2)cc1 [Compound 212, 8-(4-(tert-butyl)phenyl)-3-cyclobutyl-2,3,4,5-tetrahydro-1H-benzo[4,5]imidazo[1,2-d][1,4]diazepine]
